From the supplement of paper PMC13380429

What was measured:
[1] = test system: A549-ACE2 infected with SARS-CoV-2; experiment: morphology score (similarity to uninfected cells); higher = more like uninfected cells; conditions: 24 h
Vero E6 [2] = experiment: cell viability relative to DMSO; higher = less toxic; conditions: 72 h
Calu-3 [3] = experiment: as above; conditions: 72 h
Caco-2 [4] = experiment: as above; conditions: 72 h
HepG2 [5] = experiment: as above; conditions: 72 h
U2OS [6] = experiment: as above; conditions: 72 h
[7] = test system: A549-ACE2 infected with SARS-CoV-2; experiment: cell count relative to DMSO; higher = less toxic; conditions: 24 h
Vero E6 [8] = experiment: relative viability EC50 (midpoint between 100% and the lowest measured viability); higher = less toxic; conditions: 72 h
Calu-3 [9] = experiment: as above; conditions: 72 h
A549-ACE2 [10] = experiment: drug-induced phospholipidosis relative to tamoxifen; higher = more phospholipidosis
A549-ACE2 [11] = experiment: phospholipidosis EC50; higher = less potent phospholipidosis inducer
[12] = test system: A549-ACE2 infected with SARS-CoV-2; experiment: SARS-CoV-2 infection rate relative to DMSO; higher = more infection; conditions: 24 h
Vero E6 [13] = experiment: drug sensitivity score (DSS) for viability; higher = more toxic; extreme values may be limits of the assay; conditions: 72 h
Calu-3 [14] = experiment: as above; conditions: 72 h
Caco-2 [15] = experiment: as above; conditions: 72 h
HepG2 [16] = experiment: as above; conditions: 72 h
U2OS [17] = experiment: as above; conditions: 72 h
Caco-2 [18] = experiment: relative viability EC50 (midpoint between 100% and the lowest measured viability); higher = less toxic; conditions: 72 h
HepG2 [19] = experiment: as above; conditions: 72 h
U2OS [20] = experiment: as above; conditions: 72 h

O=C(NCCN1CCC2(CC1)C(=O)NCN2c1cccc(F)c1)c1ccc2ccccc2c1
Conditions | SARS-CoV-2 infection rate [%] | cell count [%] | cell viability [%] | morphology score | phospholipidosis EC50 [nM]
A549-ACE2 [11], 24 h | – | – | – | – | 2210
A549-ACE2 [11], 48 h | – | – | – | – | 3210
A549-ACE2 [11], 72 h | – | – | – | – | 4550
Caco-2 [4], 1 nM | – | – | 102 | – | –
Caco-2 [4], 10 nM | – | – | 93.5 | – | –
Caco-2 [4], 100 nM | – | – | 95.2 | – | –
Caco-2 [4], 1000 nM | – | – | 90.8 | – | –
Caco-2 [4], 10000 nM | – | – | 52.4 | – | –
Calu-3 [3], 1 nM | – | – | 100 | – | –
Calu-3 [3], 10 nM | – | – | 102 | – | –
Calu-3 [3], 100 nM | – | – | 94.8 | – | –
Calu-3 [3], 1000 nM | – | – | 95 | – | –
Calu-3 [3], 10000 nM | – | – | 11.2 | – | –
HepG2 [5], 1 nM | – | – | 104 | – | –
HepG2 [5], 10 nM | – | – | 106 | – | –
HepG2 [5], 100 nM | – | – | 102 | – | –
HepG2 [5], 1000 nM | – | – | 85.9 | – | –
HepG2 [5], 10000 nM | – | – | 54.5 | – | –
U2OS [6], 1 nM | – | – | 101 | – | –
U2OS [6], 10 nM | – | – | 104 | – | –
U2OS [6], 100 nM | – | – | 97.7 | – | –
U2OS [6], 1000 nM | – | – | 100 | – | –
U2OS [6], 10000 nM | – | – | 71 | – | –
Vero E6 [2], 1 nM | – | – | 103 | – | –
Vero E6 [2], 10 nM | – | – | 95.6 | – | –
Vero E6 [2], 100 nM | – | – | 97.4 | – | –
Vero E6 [2], 1000 nM | – | – | 96.4 | – | –
Vero E6 [2], 10000 nM | – | – | 84.8 | – | –
[1], 0.3 µM | – | – | – | -0.21 | –
[1], 3 µM | – | – | – | 0.7 | –
[1], 10 µM | – | – | – | 0.39 | –
[1], 30 µM | – | – | – | 0.06 | –
[7], 0.3 µM | – | 96 | – | – | –
[7], 3 µM | – | 115 | – | – | –
[7], 10 µM | – | 93 | – | – | –
[7], 30 µM | – | 3 | – | – | –
[12], 0.3 µM | 107 | – | – | – | –
[12], 3 µM | 35 | – | – | – | –
[12], 10 µM | 20 | – | – | – | –
[12], 30 µM | 48 | – | – | – | –

Conditions | drug sensitivity score | relative viability EC50 [nM]
Caco-2 [15] | 4 | –
Calu-3 [9] | – | 2720
Calu-3 [14] | 5.7 | –
HepG2 [16] | 4.4 | –
U2OS [17] | 1.2 | –
Vero E6 [8] | – | > 10000
Vero E6 [13] | 0.5 | –

drug-induced phospholipidosis [%], A549-ACE2 [10]
Conditions | 0.3 µM | 0.833333 µM | 3.33333 µM | 6.66667 µM | 10 µM | 30 µM
24 h | 1.19 | 9.12 | 93.1 | 112 | 127 | 127
48 h | 2.88 | 7.95 | 76.2 | 107 | 140 | 134
72 h | 2.25 | 6.48 | 52.3 | 100 | 120 | –

CN1CCN(S(=O)(=O)c2ccc(-c3cnc(N)c(C(=O)Nc4cccnc4)n3)cc2)CC1 [AZD2858]
Conditions | SARS-CoV-2 infection rate, [12] [%] | cell count, [7] [%] | cell viability, Caco-2 [4] [%] | cell viability, Calu-3 [3] [%] | cell viability, HepG2 [5] [%] | cell viability, U2OS [6] [%] | cell viability, Vero E6 [2] [%] | morphology score, [1]
1 nM | – | – | 96.7 | 98.2 | 104 | 92.4 | 98.5 | –
10 nM | – | – | 96.7 | 102 | 104 | 99.5 | 93.1 | –
0.1 µM | 103 | 100 | – | – | – | – | – | -0.23
100 nM | – | – | 102 | 99.4 | 101 | 96.6 | 100 | –
0.3 µM | 100 | 96 | – | – | – | – | – | -0.27
1 µM | 86 | 107 | – | – | – | – | – | -0.14
1000 nM | – | – | 108 | 114 | 97.3 | 100 | 102 | –
3 µM | 95 | 97 | – | – | – | – | – | -0.15
10000 nM | – | – | 82.3 | 85.7 | 70.4 | 73.8 | 78.8 | –

Conditions | drug sensitivity score | relative viability EC50 [nM]
Caco-2 [15] | 0.2 | –
Caco-2 [18] | – | > 10000
Calu-3 [9] | – | > 10000
Calu-3 [14] | 0 | –
HepG2 [16] | 1.7 | –
U2OS [17] | 1 | –
Vero E6 [8] | – | > 10000
Vero E6 [13] | 0.6 | –

drug-induced phospholipidosis [%], A549-ACE2 [10]
Conditions | 0.3 µM | 0.833333 µM | 3.33333 µM | 6.66667 µM | 10 µM | 30 µM
24 h | -4.95 | -12.2 | -21.2 | -22.8 | -21.3 | -18.1
48 h | 1.83 | -4.03 | -14.2 | – | – | –
72 h | 1.77 | -0.315 | -6.78 | – | – | –

CC[C@@H](C(=O)[C@@H](C)[C@@H](O)[C@H](C)[C@@H]1O[C@@H]([C@@H](CC)C(=O)O)CC[C@@H]1C)[C@H]1O[C@]2(C=C[C@@H](O)[C@]3(CC[C@@](C)([C@H]4CC[C@](O)(CC)[C@H](C)O4)O3)O2)[C@H](C)C[C@@H]1C [Salinomycin (Procoxacin)]
Conditions | SARS-CoV-2 infection rate, [12] [%] | cell count, [7] [%] | cell viability, Caco-2 [4] [%] | cell viability, Calu-3 [3] [%] | cell viability, HepG2 [5] [%] | cell viability, U2OS [6] [%] | cell viability, Vero E6 [2] [%] | morphology score, [1]
1 nM | – | – | 100 | 87.9 | 121 | 100 | 109 | –
10 nM | – | – | 98.7 | 91.4 | 108 | 105 | 103 | –
100 nM | – | – | 69.5 | 80.6 | 103 | 89.2 | 104 | –
0.3 µM | 28 | 118 | – | – | – | – | – | 0.84
1000 nM | – | – | 38.3 | 53.1 | 36.6 | 68.7 | 70.1 | –
3 µM | 19 | 110 | – | – | – | – | – | 0.8
10 µM | 26 | 116 | – | – | – | – | – | 0.51
10000 nM | – | – | 17.3 | 26.5 | 25.3 | 22.6 | 44.7 | –
30 µM | 54 | 101 | – | – | – | – | – | 0

Conditions | drug sensitivity score | relative viability EC50 [nM]
Caco-2 [15] | 15.4 | –
Caco-2 [18] | – | 224
Calu-3 [9] | – | 360
Calu-3 [14] | 11.6 | –
HepG2 [16] | 11.6 | –
HepG2 [19] | – | 513
U2OS [17] | 7.8 | –
U2OS [20] | – | 1230
Vero E6 [8] | – | 939
Vero E6 [13] | 6.7 | –

drug-induced phospholipidosis [%], A549-ACE2 [10]
Conditions | 0.3 µM | 0.833333 µM | 3.33333 µM | 6.66667 µM | 10 µM | 30 µM
24 h | 2.06 | -1.22 | -9.27 | 4.33 | 16.4 | 32
48 h | 3.07 | -6.1 | -3.84 | 10.2 | – | –
72 h | 12.7 | – | – | – | – | –
